Reference: ChEMBL document CHEMBL5150027, “The inhibition of monoamine oxidase by 2H-1,4-benzothiazin-3(4H)-ones” (Bioorg Med Chem Lett, 2022)

How the values were obtained:
[1] = molecular target: T1, Amine oxidase [flavin-containing] A (Homo sapiens, UniProt P21397); assay: Inhibition of recombinant human MAO-A using kynuramine as substrate assessed as inhibition of 4-hydroxyquinoline formation incubated for 20 mins by fluorescence spectrophotometric analysis
T1 sequence (P21397 whole entry): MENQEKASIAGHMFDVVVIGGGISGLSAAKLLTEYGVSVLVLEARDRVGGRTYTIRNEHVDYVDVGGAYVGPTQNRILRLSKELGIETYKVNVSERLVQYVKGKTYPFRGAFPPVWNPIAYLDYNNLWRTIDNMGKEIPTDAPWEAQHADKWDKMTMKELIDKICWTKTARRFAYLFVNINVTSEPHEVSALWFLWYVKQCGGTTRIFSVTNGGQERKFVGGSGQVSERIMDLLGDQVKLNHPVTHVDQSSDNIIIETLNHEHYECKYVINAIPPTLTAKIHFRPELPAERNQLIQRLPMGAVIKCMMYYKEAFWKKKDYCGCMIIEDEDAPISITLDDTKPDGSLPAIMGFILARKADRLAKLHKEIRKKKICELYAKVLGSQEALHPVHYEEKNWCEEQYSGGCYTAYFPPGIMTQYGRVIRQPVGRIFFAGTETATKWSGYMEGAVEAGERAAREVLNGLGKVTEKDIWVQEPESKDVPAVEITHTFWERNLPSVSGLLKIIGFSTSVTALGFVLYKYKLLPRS

[2] = molecular target: T2, Amine oxidase [flavin-containing] B (Homo sapiens, UniProt P27338)
T2 sequence (P27338 whole entry): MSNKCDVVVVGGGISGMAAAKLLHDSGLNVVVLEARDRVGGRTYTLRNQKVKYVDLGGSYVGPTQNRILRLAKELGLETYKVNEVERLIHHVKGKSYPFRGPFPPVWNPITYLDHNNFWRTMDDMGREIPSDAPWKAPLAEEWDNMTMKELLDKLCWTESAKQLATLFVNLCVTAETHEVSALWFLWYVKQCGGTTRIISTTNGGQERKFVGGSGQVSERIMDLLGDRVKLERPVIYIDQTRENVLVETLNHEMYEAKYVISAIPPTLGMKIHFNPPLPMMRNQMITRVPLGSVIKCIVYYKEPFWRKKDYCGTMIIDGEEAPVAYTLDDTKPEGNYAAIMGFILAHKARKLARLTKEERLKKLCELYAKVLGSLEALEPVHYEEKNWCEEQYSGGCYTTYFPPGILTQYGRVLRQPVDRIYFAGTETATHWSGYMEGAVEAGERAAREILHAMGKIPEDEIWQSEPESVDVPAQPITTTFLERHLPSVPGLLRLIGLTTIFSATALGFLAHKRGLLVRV

[3] = molecular target: T2, Amine oxidase [flavin-containing] B; assay: Competitive inhibition of recombinant human MAO-B using kynuramine as substrate assessed as enzyme-inhibitor dissociation constant at varying substrate concentration by Lineweaver-burk plot analysis
D-amino-acid oxidase = D-amino-acid oxidase (Sus scrofa, UniProt P00371); assay: Inhibition of porcine kidney DAAO using D-serine as substrate assessed as H2O2 formation by amplex red and peroxidase-coupled continuous fluorescence spectrophotometric analysis
Sequence of D-amino-acid oxidase (P00371 whole entry): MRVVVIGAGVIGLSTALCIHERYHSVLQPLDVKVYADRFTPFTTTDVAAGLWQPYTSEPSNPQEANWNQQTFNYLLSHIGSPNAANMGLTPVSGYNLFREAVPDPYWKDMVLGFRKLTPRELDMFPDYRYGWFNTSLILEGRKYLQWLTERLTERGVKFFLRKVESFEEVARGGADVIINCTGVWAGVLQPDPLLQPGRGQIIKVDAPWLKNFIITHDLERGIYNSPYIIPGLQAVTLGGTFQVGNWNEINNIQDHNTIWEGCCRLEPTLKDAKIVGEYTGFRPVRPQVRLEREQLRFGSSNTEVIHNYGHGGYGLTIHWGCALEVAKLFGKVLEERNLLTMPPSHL

Compound | IC50 [1] [µM] | IC50 [2] [µM] | Ki [3] [µM] | IC50 (D-amino-acid oxidase) [µM]
COc1ccc2c(c1)SCC(=O)N2 | 21.1 | 42.6 |  | 
O=C1CSc2cc(OCCc3ccccc3)ccc2N1 | 13.1 | 0.167 |  | 
N#Cc1ccc(COc2ccc3c(c2)SCC(=O)N3)cc1 | 0.714 | 0.0096 | 0.0067 | 47.5
O=C1CSc2cc(OCc3ccc(Br)cc3)ccc2N1 | 15.6 | 0.0041 |  | 
O=C1CSc2cc(OCC3CCCCC3)ccc2N1 | 1.17 | 0.024 |  | 
O=C1CSc2cc(OCc3ccccc3)ccc2N1 | 8.06 | 0.071 |  | 
O=C1CSc2cc(O)ccc2N1 | 19.2 | 20 |  | 4.2
O=C1CSc2cc(OCCCc3ccccc3)ccc2N1 | 96.8 | 0.02 |  | 
O=C1CSc2cc(OCc3ccc(Cl)cc3)ccc2N1 | 24.4 | 0.0027 |  | 73.2
CCCOc1ccc2c(c1)SCC(=O)N2 | 6.51 | 2.87 |  | 
Cc1ccc(COc2ccc3c(c2)SCC(=O)N3)cc1 |  | 0.0082 |  | 
